Data set [1] relates to HCT-116 p53+/− or p53 −/−. Briefly: Clonogenic survival assay. In kind it is cell-based, human. The conditions noted are these: effective doses. An excerpt:
(§1) We next performed a clonogenic survival assay (S4E) to determine colony formation in cancer cells in the presence and absence of VTD. […] At the same time, we measured the mot-2, p53, and UBXN2A protein levels in all these cell lines. […] To verify whether VTD-induced cell death is mediated through the UBXN2A-mot-2-p53 axis, we looked at the expression of p53 in the cytoplasm and nucleus of HCT-116 cells following VTD treatment. […] Due to a high cell death in higher doses of VTD, we could not use WB analysis for reliable p53 and UBXN2A detection and quantification. Finally, we checked the effect of VTD on non-cancerous cell lines. We incubated human umbilical vein endothelial cells (HUVECs), which mimic non-cancerous endothelial cells next to tumor cells, with VTD (S4G). […] Due to the different levels of the stress condition, we observed more sensitivity to VTD in LoVo and U2OS cells versus HCT-116 cells. In addition, lack of similar response in normal cells due to the absence of stresses and cytoplasmic mot-2 further explains VTD is therefore a drug that selectively targets cancer cell.
(§2) The viability of cells was calculated as % of control.
(§3) FIG. 17: Induction of apoptosis and in vitro cytotoxicity by VTD in a human cancer cell line with different statuses of p53 and mot-2. (A-D) Cells were treated with VTD for 24, 48, and 72 hours. After incubation, dead cells were washed off, and the remaining attached cells were calculated by counting in five random fields using the Axiovert 200 M inverted microscope and AxioVision software (cell detachment assay). The % of cells attached was calculated as % of control cells. […] The data is shown as mean+SEM of three independent experiments (n=3, *p<0.05). (E-K) Cells were plated for 5 days, and the colonies of cells were treated with different concentration of VTD. The colonies of viable cells were stained with crystal violet dye and absorbance, as an index of measurement of colony forming units, was read at 562 nm (clonogenic survival assay). VTD induced a significant decrease in cell viability in a p53- and differentiation grade manner in HCT-116 poorly differentiated cells (E), HCT 116 p53+/−(F), HCT-116 p53−/− (G), LoVo well-differentiated cells (H), SW-480 (K), and two non-colon cancer cells: HepG2 (I) and U2OS (J). The data is shown as mean+SEM of three independent experiments (n=3, *p<0.05). (L) Determination of endogenous levels of mot-2, UBXN2A, HSC70, and p53 proteins in various cancer cell lines using WB. (M) HCT-116 cells were treated with VTD (10 and 30 μM) and cytoplasmic and nuclear fractions were subjected to WB. HSC70 and Orc-2 antibodies were used as cytoplasmic and nuclear markers, respectively.

In data set [2] the test system is HCT-116. Briefly: Clonogenic survival assay. The conditions noted are these: in higher doses. Format: cell-based, human.
Source text: as §1, §2, §3

In data set [3] the test system is HepG2. Briefly: Clonogenic survival assay. Format: cell-based, human. The conditions noted are these: as low as 30 μM VTD.
Source text: as §1, §2, §3

Data set [4] deals with LoVo. In words: Clonogenic survival assay. In kind it is cell-based, human. Particulars: as low as 30 μM VTD.
Source text: as §1, §2, §3

Data set [5] relates to SW480. Briefly: Clonogenic survival assay. In kind it is cell-based, human. Particulars: mutant p53, even at higher doses.
Source text: as §1, §2, §3

Data set [6] deals with U2OS. Briefly: Clonogenic survival assay. Format: cell-based, human. The conditions noted are these: as low as 30 μM VTD.
Source text: as §1, §2, §3

Data set [7] deals with human umbilical vein endothelial cells (HUVECs). In words: Effect on non-cancerous cells. In kind it is cell-based.
Source text: as §1

Data set [8] concerns SW480. In words: Long-term (10 days) exposure colony formation / cell viability. Format: cell-based, human. Particulars: VTD 10-300 μM, mutant p53. As for the experimental part: Because colon cancer cells develop resistance to chemotherapy after an initial response, we decided to investigate whether VTD can potentiate the cytotoxic effect of 5-FU when cells receiving long-term therapy mimicking the in vivo therapy. Cells were treated with VTD for 10 days.
FIG. 20: Sensitization of colon cancer cells to a long-term suboptimal dose of 5-fluorouracil exposure when combined with VTD. (A-D) (A) HCT-116, (B) LoVo, (C) SW-480, and (D) U2OS were treated with VTD (10-300 μM) for 10 days. […] (E-G) (E) HCT-116, (F) LoVo, and (G) U-2OS were treated with suboptimal doses of 5-FU and VTD (50 and 100 μM) for 10 days. […] (H-I) A series of flow cytometry assays using an antibody against the CD44 cancer stem cell marker illustrated that VTD can target CD44+ colon cancer stem cells and eventually eliminate them in a dose-dependent manner, implicating VTD as a potential cancer stem cell-targeting therapy. (J) Tumor tissue lysates from 48 patients with colon cancer along the matched adjacent normal colon tissue lysates were probed with anti-UBXN2A and anti-Actin antibodies, followed by quantitation and normalization of signals. […] (I) The proposed mechanism action of VTD. VTD increases the expression of UBXN2A, which releases the p53 from mot-2's sequestration and, together with standard chemotherapy, can cause an effective tumor suppression.

Data set [9] deals with HCT-116-iRFP cancer cells. In words: HCT-116-iRFP xenograft mouse model. Format: in vivo, Hsd:Athymic Nude-Foxn1nu mice. The conditions noted are these: IP 0.1 mg/kg every other day for 5 weeks versus Ethanol. As for the experimental part: Five week Hsd:Athymic Nude-Foxn1^nu mice were implanted with 1×10^6 HCT-116-iRFP cancer cells at both flanks followed by IP injection of Ethanol (con) or Veratridine (VTD-0.1 mg/kg) every other day for 5 weeks. Twelve mice were used per treatment with 6 males and 6 females in each group.

In the case of `COc1ccc(C(=O)O[C@H]2CC[C@@]3(C)[C@@H]4CC[C@H]5[C@]6(O)C[C@H](O)[C@@]7(O)[C@@H](CN8C[C@@H](C)CC[C@H]8[C@@]7(C)O)[C@]6(O)C[C@@]53O[C@]24O)cc1OC` [VTD, Veratridine], the “p53 dependence of anti-colony formation role” value in data set [1] was “partially p53 dependent”. Moreover, the colony formation result in data set [2] is recorded as “reduces colony formation”. The number of colonies result is reported as “significantly decreases the number of colonies” in data set [3], “significantly decreases the number of colonies” in [4], “no response” in data set [5] and “significantly decreases the number of colonies” in data set [6]. Moreover, the “response of non-cancerous HUVEC cells” value in [7] (first 24 hours) is reported as “did not respond”; in data set [7] (highest dose of VTD, 48 hours), “moderate response”. Also, the “cell viability, long-term exposure” value in [8] was “no response”. Besides, the growth of tumor entry in data set [9] is “slowdown growth of tumor”.
